Assay results taken from article PMC7255010, “Small-molecule activating SIRT6 elicits therapeutic effects and synergistically promotes anti-tumor activity of vitamin D3 in colorectal cancer” (Theranostics, 2020).

Columns and labels:
[1] = test system: CYP24A1; assay: RT-qPCR of CYP24A1 mRNA in CRC cells; format: cell-based, human; settings: HCT116 and HT29 cells, 1,25(OH)2D3 (5 µM), 48 h
Procedure: Total RNA was extracted with TRIzol reagent (Invitrogen) according to the manufacturer's instructions. For cDNA synthesis, 1 μg of total RNA was reverse transcribed using a FastKing RT Kit (Tiangen). RT-qPCRs were run in triplicate using SYBR Green master mix (Roche) in an ABI 7900 Thermal Cycler (Applied Biosystems) according to the manufacturer's instructions. RT-qPCRs were performed in triplicate, and the mean cycle threshold (Ct) values were calculated for expression analysis. The mRNA levels of target genes were calculated using the 2^-ΔΔCt method. The expression data were normalized to β-actin expression levels and are presented as the mean ± s.e.m. of three independent experiments.

[2] = Pharmacokinetic studies in mice; format: in vivo; design: t1/2 / F (bioavailability): dose or concentration left out as unconfirmed; settings: C57BL/6J mice
Procedure: Pharmacokinetic studies were performed by Shanghai Medicilon Inc, China, following standard protocols. Briefly, six-week-old male C57BL/6J mice were grouped randomly (n = 5 per group). […] Two administration formulations were prepared in the vehicle with 5% DMSO, 10% Solutol and 85% saline, with the pH adjusted to 7.0-8.0. After treatment, the mice were sacrificed, and their plasma samples were collected at 5 min, 15 min, 30 min, 1 h, 2 h, 4 h, 8 h, and 24 h. The drug concentration in plasma was analyzed by LC-MS/MS. Pharmacokinetic parameters were calculated using Analyst Software 1.6.3 from mean plasma concentration-time profiles. The area under the curve (AUC) was measured from time versus concentration data by the linear trapezoidal rule. […] The calculation was normalized to relative doses.

[3] = target: SIRT6 (Homo sapiens, UniProt Q8N6T7); assay: FDL assay of SIRT6 deacetylase activity (RHKK-Ac-AMC); format: biochemical; design: WT (wild-type) full-length human SIRT6 was inserted into the pET28a-LIC vector; made in house; host or cells: Escherichia coli BL21 (DE3); settings: activation of SIRT6 deacetylation, RHKK-Ac-AMC (75 µM), mean ± s.d., three independent experiments
SIRT6, sequence (Q8N6T7 whole entry): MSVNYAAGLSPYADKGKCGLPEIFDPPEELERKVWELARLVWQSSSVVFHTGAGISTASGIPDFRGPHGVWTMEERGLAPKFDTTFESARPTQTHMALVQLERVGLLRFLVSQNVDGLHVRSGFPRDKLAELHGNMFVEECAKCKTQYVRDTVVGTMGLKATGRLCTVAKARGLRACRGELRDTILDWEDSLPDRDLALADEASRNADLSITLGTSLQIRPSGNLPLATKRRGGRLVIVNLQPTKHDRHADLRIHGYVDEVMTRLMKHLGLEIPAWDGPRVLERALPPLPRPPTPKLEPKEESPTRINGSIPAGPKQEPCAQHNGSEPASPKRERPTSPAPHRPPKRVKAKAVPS
Procedure: According to previously described methods, WT (wild-type) full-length human SIRT6 was inserted into the pET28a-LIC vector (Addgene plasmid #26094). The plasmid was transformed into Escherichia coli BL21 (DE3) cells. Protein was purified using a nickel column and gel filtration. Purified protein was dialyzed into assay buffer (50 mM Tris-HCl [pH 8.0], 137 mM NaCl, 2.7 mM KCl, and 1 mM MgCl2) and used in all in vitro assays performed in this study.
For the assessment of SIRT6 deacetylase activity, 5 μM WT SIRT6 was incubated in a 50-μL reaction mixture (2.5 mM NAD^+, 75 μM RHKK-Ac-AMC, compounds/DMSO, and assay buffer) at 37 °C for 2 h, quenched with 40 mM nicotinamide, and developed with 6 mg/mL trypsin for another 30 min at 25 °C. […] Fluorescence intensity was measured using a microplate reader (Synergy H4 Hybrid Reader, BioTek) at excitation and emission wavelengths of 360 nm and 460 nm, respectively. EC50 values were calculated by fitting the data points with the dose-response function in GraphPad Prism V7 (GraphPad Software). Each experiment was independently repeated three times in technical triplicates.

Row | Structure (SMILES) | EC50 [3] [µM] | further results
1 | C=C1/C(=C\C=C2/CCC[C@]3(C)[C@@H]([C@H](C)CCCC(C)(C)O)CC[C@@H]23)C[C@@H](O)C[C@@H]1O [1,25(OH)2D3, 1,25-dihydroxyvitamin D3, reference compound] |  | CYP24A1 transcription [1]: dramatically induced CYP24A1 transcription
2 | COC(=O)c1cc(NS(=O)(=O)c2cc(Cl)cc(Cl)c2)ccc1S(=O)(=O)Nc1cc(Br)c(F)cc1C [MDL-800, reference compound] |  | F (bioavailability) ([2]; IP vs IV, ratio of AUC normalized to dose): 71.33%; AUC0-t ([2]; IP, plasma, mean of five mice): 17831.51 ng·h/mL; AUC0-∞ ([2]; IP, plasma, mean of five mice): 17883.09 ng·h/mL; Cmax ([2]; IP, plasma, mean of five mice): 6610.46 ng/mL; MRT ([2]; IP, plasma, mean of five mice): 2.47 h; t1/2 ([2]; IP, plasma, mean of five mice): 2.07 h; tmax ([2]; IP, plasma, mean of five mice): 0.50 h
3 | Cc1cc(F)c(Br)cc1NS(=O)(=O)c1ccc(NS(=O)(=O)c2cc(Cl)cc(Cl)c2)cc1CN1CCNCC1 [MDL-812] | 12.8 ± 1 | 
4 | CCCCN(CC)Cc1cc(NS(=O)(=O)c2cc(Cl)cc(Cl)c2)ccc1S(=O)(=O)Nc1cc(Br)c(F)cc1C [MDL-813] | 15.4 ± 0.4 | 
5 | Cc1cc(F)c(Br)cc1NS(=O)(=O)c1ccc(NS(=O)(=O)c2cc(Cl)cc(Cl)c2)cc1CN1CCC(N2CCCCC2)CC1 [MDL-814] | 12.2 ± 0.7 | 
6 | COCCCN1CCN(Cc2cc(NS(=O)(=O)c3cc(Cl)cc(Cl)c3)ccc2S(=O)(=O)Nc2cc(Br)c(F)cc2C)CC1 [MDL-815] | 6.5 ± 0.4 | 
7 | CCCCN1CCN(Cc2cc(NS(=O)(=O)c3cc(Cl)cc(Cl)c3)ccc2S(=O)(=O)Nc2cc(Br)c(F)cc2C)CC1 [MDL-816] | 7.1 ± 0.3 | 
8 | Cc1cc(F)c(Br)cc1NS(=O)(=O)c1ccc(NS(=O)(=O)c2cc(Cl)cc(Cl)c2)cc1CN1CCC(N(C)C)C1 (stereo not shown) [MDL-817] | 9.9 ± 1.5 | 
9 | Cc1cc(F)c(Br)cc1NS(=O)(=O)c1ccc(NS(=O)(=O)c2cc(Cl)cc(Cl)c2)cc1CN(C)C [MDL-818] | 43.6 ± 3.2 | 
10 | CCN(C)Cc1cc(NS(=O)(=O)c2cc(Cl)cc(Cl)c2)ccc1S(=O)(=O)Nc1cc(Br)c(F)cc1C [MDL-819] | 34.1 ± 2.6 | 
11 | CCCN(C)Cc1cc(NS(=O)(=O)c2cc(Cl)cc(Cl)c2)ccc1S(=O)(=O)Nc1cc(Br)c(F)cc1C [MDL-820] | 38.4 ± 1.8 | 
12 | Cc1cc(F)c(Br)cc1NS(=O)(=O)c1ccc(NS(=O)(=O)c2cc(Cl)cc(Cl)c2)cc1CN1CCCCC1 [MDL-821] | 12.2 ± 0.9 | 
13 | Cc1cc(F)c(Br)cc1NS(=O)(=O)c1ccc(NS(=O)(=O)c2cc(Cl)cc(Cl)c2)cc1CN1CCCC1CO (stereo not shown) [MDL-822] | 23.9 ± 1 | 
